This is an account of results in patent US8716287B2, “Pharmaceutical compounds” (Sentinel Oncology Limited, priority 2010, dated 2014).

Entries after “also recorded” stand apart in the source; their conditions may differ. Where a name gives a salt, the structure may show the parent alone. Read-outs that look alike come from different tables or passages of the source.

One data set has as its system HT29 cells. Nature of the data set: Sensitisation of HT29 cells to SN38 (Alamar blue cell growth). Format: cell-based, human. The settings on record: HT29 cells. As to the method:
Studies were carried out to test the sensitising effect of compounds of the invention on the ability of the DNA damaging compound 7-ethyl-10-hydroxycamptothecin (SN38), an active metabolite of the anti-cancer drug irinotecan, to inhibit cell growth in HT29 cells.
(§1) The following protocol was used:
(a) HT29 cells were seeded in 96-well plates at a concentration of 3000 cells per well and allowed to adhere overnight prior to addition of compound or vehicle control.
(b) SN38 was prepared from a 10 mM DMSO stock to give a final concentration range of 1 μM, 300 nM, 100 nM, 30 nM, 10 nM, 3 nM, 1 nM, and vehicle control.
(c) Test compounds were prepared from 10 mM DMSO stocks to typically give a final concentration range of 3 μM, 1 μM, 0.3 μM. 0.1 μM, 0.03 μM and vehicle control. The final DMSO content was 0.4%.
(d) Test compounds were incubated with the cells for 72 h at 37° C. 5% CO2 in a humidified atmosphere.
(e) Alamar blue 10% (v/v) was then added and incubated for a further 6 h, and fluorescent product detected using the BMG FLUOstar plate reader.
(f) Data were analysed using a 4-parameter logistic equation in GraphPad Prism.
Sensitisation is determined by the enhancement in IC50 of SN38 by the addition of the Chk-1 kinase inhibitor. In the protocol described above, the IC50 for SN-38 is determined the presence of varying doses of the Chk-1 inhibitor. The fold shift represents a decrease in IC50 for SN-38 at a dose of Chk-1 inhibitor that has no effect by itself.
(In general: Alamar Blue is a resazurin reagent that responds to reducing activity.)

For the next data set, the system named is MV4-11 cells. Description: Inhibition of cell growth in MV4-11 cells (Alamar blue). Format: cell-based. Particulars: Homo sapiens, 72 h incubation. As to the method: (§2) Studies were carried out to test the effect of compounds on the inhibition of cell growth in MOLM-13 and MV4-11 cells.
as §1
(§3) (a) Cells were seeded in 96-well plates at cell densities of 2500/well (MOLM-13) and 10,000/well (MV4-11). Cells were then incubated overnight prior to addition of compound or vehicle control.
(§4) (b) Test compounds were prepared from 10 mM DMSO stocks to give a final concentration range of 10 μM, 3 μM, 1 μM, 0.3 μM, 0.1 μM, […], […] and vehicle control. The DMSO content was constant at 0.1%.
(§5) (c) Test compounds were incubated with the cells for 72 h at 37° C. 5% CO2 in a humidified atmosphere.
(§6) (d) Alamar blue 10% (v/v) was then added and incubated for a further 4 h, and fluorescent product detected using the BMG FLUOstar plate reader.
(§7) (e) Media only background values were subtracted and the data analysed using a 4-parameter logistic equation in GraphPad Prism.
(§8) From the results obtained by following the above protocol, the IC50 values against MOLM-13 and MV4-11 cells of the compounds of Examples 20, 21, 22, 25, 33, 35, 37, 38, 44, 48, 49, 50, 51, 53, 54 and 55 were determined.

The test system of the next data set is MOLM-13 cells. Description: Inhibition of cell growth in MOLM-13 cells (Alamar blue). Particulars: Homo sapiens, 72 h incubation. In kind it is cell-based. As to the method: as §2, §1, §3, §4, §5, §6, §7, §8
For a further data set, the target named is Chk-1 kinase (Homo sapiens (Human), UniProt O14757). Description: Chk-1 kinase inhibiting activity (33P-ATP filter assay, CHKtide substrate). In kind it is biochemical. As to the method: The compounds of the invention were tested for activity against Chk-1 kinase using the materials and protocols set out below.
Base Reaction buffer: 20 mM Hepes (pH 7.5), 10 mM MgCl2, 1 mM EGTA, 0.02% Brij35, 0.02 mg/ml BSA, 0.1 mM Na3VO4, 2 mM DTT, 1% DMSO
*Required cofactors are added individually to each kinase reaction
(i) Prepare indicated substrate in freshly prepared Base Reaction Buffer
(ii) Deliver any required cofactors to the substrate solution above
(iii) Deliver indicated kinase into the substrate solution and gently mix
(iv) Deliver compounds in DMSO into the kinase reaction mixture
(v) Deliver ^33P-ATP (specific activity 0.01 μCi/μl final) into the reaction mixture to initiate the reaction.
(vi) Incubate kinase reaction for 120 minutes at room temperature
(vii) Reactions are spotted onto P81 ion exchange paper (Whatman #3698-915)
(viii) Wash filters extensively in 0.1% phosphoric acid.
(ix) Dry filters and measure counts in scintillation counter
Recombinant full length construct, N-terminal GST tagged, purified from insect cells.
No special measures were taken to activate this kinase.
Final concentration in assay=0.5 nM
Peptide sequence: [[…]]
Final concentration in assay=20 μM
No additional cofactors are added to the reaction mixture

Setting [1] is: Chk-1 kinase, Table 3, read-out: IC50.
[2] abbreviates: ranges given, read-out: IC50 values against Chk-1 kinase.

Chain of Chk-1 kinase (O14757 whole entry): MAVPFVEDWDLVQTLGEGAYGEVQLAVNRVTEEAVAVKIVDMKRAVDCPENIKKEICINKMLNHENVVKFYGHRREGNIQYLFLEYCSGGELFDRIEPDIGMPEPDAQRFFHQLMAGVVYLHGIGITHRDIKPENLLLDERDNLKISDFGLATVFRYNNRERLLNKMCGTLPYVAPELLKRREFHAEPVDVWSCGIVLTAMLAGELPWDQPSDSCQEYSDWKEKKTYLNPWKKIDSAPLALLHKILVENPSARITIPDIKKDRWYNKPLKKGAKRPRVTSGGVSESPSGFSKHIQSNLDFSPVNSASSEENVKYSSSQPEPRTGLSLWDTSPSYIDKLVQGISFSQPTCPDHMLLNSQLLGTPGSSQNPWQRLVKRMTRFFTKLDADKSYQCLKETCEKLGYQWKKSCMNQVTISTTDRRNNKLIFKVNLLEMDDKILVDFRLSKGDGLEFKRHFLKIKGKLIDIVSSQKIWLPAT

One may read the IC50 as the concentration at which inhibition is half-maximal. In the case of `COc1cc(CCNCc2ccc(F)cc2)ccc1NC(=O)Nc1cnc(C#N)cn1` [Example 20, 1-(5-Cyano-pyrazin-2-yl)-3-{4-[2-(4-fluoro-benzylamino)-ethyl]-2-methoxy-phenyl}-urea], the “fold shift in the IC50 value of SN38” value with HT29 cells (test compound at 3 μM) was “three; also recorded: greater than ten”. In addition, the IC50 in the data set on MV4-11 cells is 810 nM; with MOLM-13 cells, 500 nM; on Chk-1 kinase (setting [1]) it was 2.8 nM; at Chk-1 kinase (setting [2]), under 10 nM.

With `COc1cc(OCCNCc2ccc(F)cc2)ccc1NC(=O)Nc1cnc(C#N)cn1` [Example 21, 1-(5-Cyano-pyrazin-2-yl)-3-{4-[2-(4-fluorobenzylamino)-ethoxy]-2-methoxy-phenyl}-urea], the IC50 was 1290 nM in the data set on MV4-11 cells, 1300 nM in the data set with MOLM-13 cells, 4.1 nM on Chk-1 kinase (setting [1]) and under 10 nM on Chk-1 kinase (setting [2]).

With `COc1cc(CNCc2ccccc2)ccc1NC(=O)Nc1cnc(C#N)cn1` [Example 22, 1-[4-(Benzylamino-methyl)-2-methoxy-phenyl]-3-(5-cyano-pyrazin-2-yl)-urea], in the data set on HT29 cells (test compound at 3 μM), the “fold shift in the IC50 value of SN38” value is “three; also recorded: greater than ten”. Besides, the IC50 in the data set on MV4-11 cells is over 3000 nM; with MOLM-13 cells it was over 3000 nM; on Chk-1 kinase (setting [1]), 99 nM; on Chk-1 kinase (setting [2]) it was 10 to 100 nM.

As for `N#Cc1cnc(NC(=O)Nc2ccc(CCNCc3ccc(N4CCOCC4)cc3)c(Cl)c2)cn1` [Example 25, 1-{3-Chloro-4-[2-(4-morpholin-4-yl-benzylamino)-ethyl]-phenyl}-3-(5-cyano-pyrazin-2-yl)-urea], the IC50 in the data set with MV4-11 cells was 1710 nM; in the data set with MOLM-13 cells it was 1790 nM; on Chk-1 kinase (setting [1]), 18 nM; at Chk-1 kinase (setting [2]), 10 to 100 nM.

Take `COc1cc(OCCNCc2ccc(F)cc2F)ccc1NC(=O)Nc1cnc(C#N)cn1` [Example 33, 1-(5-Cyano-pyrazin-2-yl)-3-{4-[2-(2,4-difluoro-benzylamino)-ethoxy]-2-methoxy-phenyl}-urea]: the “fold shift in the IC50 value of SN38” value in the data set with HT29 cells (test compound at 3 μM) is given as “three”. In addition, the IC50 in the data set on MV4-11 cells was 1290 nM; with MOLM-13 cells it was 1300 nM; at Chk-1 kinase (setting [1]), 3 nM; on Chk-1 kinase (setting [2]) it was under 10 nM.

Consider `CN1CCN(c2ccc(CNCCc3ccc(NC(=O)Nc4cnc(C#N)cn4)cc3Cl)cc2)CC1` [Example 35, 1-(3-Chloro-4-{2-[4-(4-methyl-piperazin-1-yl)-benzylamino]-ethyl}-phenyl)-3-(5-cyano-pyrazin-2-yl)-urea], for which the “fold shift in the IC50 value of SN38” value in the data set on HT29 cells (test compound at 1 μM) is given as “two”. The IC50 in the data set with MV4-11 cells is 3900 nM; in the data set on MOLM-13 cells, 1300 nM; at Chk-1 kinase (setting [1]) it was 1.4 nM; at Chk-1 kinase (setting [2]) it was under 10 nM.

As for `COc1cc(CCNCc2ccc(F)cc2)c(Cl)cc1NC(=O)Nc1cnc(C#N)cn1` [Example 37, 1-{5-Chloro-4-[2-(4-fluoro-benzylamino)-ethyl]-2-methoxy-phenyl}-3-(5-cyano-pyrazin-2-yl)-urea hydrochloride], the “fold shift in the IC50 value of SN38” value is listed as “two” in the data set on HT29 cells (test compound at 1 μM) and “greater than ten” with HT29 cells (test compound at 3 μM). The IC50 was 1000 nM with MV4-11 cells, 570 nM in the data set with MOLM-13 cells, 1.6 nM at Chk-1 kinase (setting [1]) and under 10 nM at Chk-1 kinase (setting [2]).

`CN1CCN(c2cccc(CNCCc3ccc(NC(=O)Nc4cnc(C#N)cn4)cc3Cl)c2)CC1` [Example 38, 1-(3-Chloro-4-{2-[3-(4-methyl-piperazin-1-yl)-benzylamino]-ethyl}-phenyl)-3-(5-cyano-pyrazin-2-yl)-urea]: the “fold shift in the IC50 value of SN38” value with HT29 cells (test compound at 3 μM) is reported as “three”. In addition, the IC50 in the data set with MV4-11 cells is 2440 nM; in the data set with MOLM-13 cells, 610 nM; at Chk-1 kinase (setting [1]), 9.1 nM; on Chk-1 kinase (setting [2]), under 10 nM.

As for `N#Cc1cnc(NC(=O)Nc2ccc(CCNCc3ccc(F)c(F)c3)c(Cl)c2)cn1` [Example 40, 1-{3-Chloro-4-[2-(3,4-difluoro-benzylamino)-ethyl]-phenyl}-3-(5-cyano-pyrazin-2-yl)-urea], the “fold shift in the IC50 value of SN38” value with HT29 cells (test compound at 3 μM) is reported as “three”. For the same molecule, the figures for the IC50 at Chk-1 kinase (setting [1]) and at Chk-1 kinase (setting [2]) were 7.9 nM and under 10 nM, respectively.

`COc1cc(CCNCc2ccc(F)cc2)c(Br)cc1NC(=O)Nc1cnc(C#N)cn1` [Example 42, 1-{5-Bromo-4-[2-(4-fluoro-benzylamino)-ethyl]-2-methoxy-phenyl}-3-(5-cyano-pyrazin-2-yl)-urea hydrochloride]: the figures for the “fold shift in the IC50 value of SN38” value in the data set on HT29 cells (test compound at 1 μM) and with HT29 cells (test compound at 3 μM) were “two” and “greater than ten”, respectively. The IC50 was 0.45 nM on Chk-1 kinase (setting [1]) and under 10 nM at Chk-1 kinase (setting [2]).

Turning to `COc1cc(CCN[C@@H](C)c2ccc(F)cc2)ccc1NC(=O)Nc1cnc(C#N)cn1` [Example 44, 1-(5-Cyano-pyrazin-2-yl)-3-(4-{2-[(S)-1-(4-fluoro-phenyl)-ethylamino]-ethyl}-2-methoxy-phenyl)-urea], the IC50 is 960 nM in the data set on MV4-11 cells, 850 nM in the data set on MOLM-13 cells, 5.1 nM at Chk-1 kinase (setting [1]) and under 10 nM on Chk-1 kinase (setting [2]).

For the molecule `COc1cc(CCNCc2ccc(N3CCN(C)CC3)cc2)ccc1NC(=O)Nc1cnc(C#N)cn1` [Example 51, 1-(5-Cyano-pyrazin-2-yl)-3-(2-methoxy-4-{2-[4-(4-methyl-piperazin-1-yl)-benzylamino]-ethyl}-phenyl)-urea], the IC50 was 860 nM with MV4-11 cells, 240 nM with MOLM-13 cells, 3.3 nM on Chk-1 kinase (setting [1]) and under 10 nM on Chk-1 kinase (setting [2]).

For the molecule `COc1ccc([C@H](C)NCCc2cc(OC)c(NC(=O)Nc3cnc(C#N)cn3)cc2Cl)cc1` [Example 53, 1-(5-Chloro-2-methoxy-4-{2-[(S)-1-(4-methoxy-phenyl)-ethylamino]-ethyl}-phenyl)-3-(5-cyano-pyrazin-2-yl)-urea hydrochloride], the IC50 in the data set with MV4-11 cells is 288 nM; in the data set with MOLM-13 cells, 30 nM; at Chk-1 kinase (setting [1]), 0.56 nM; on Chk-1 kinase (setting [2]), under 10 nM.

`COc1cc(CCNCc2ccc3c(c2)OCO3)c(Cl)cc1NC(=O)Nc1cnc(C#N)cn1` [Example 54, 1-(4-{2-[(Benzo[1,3]-dioxol-5-ylmethyl)-amino]-ethyl}-5-chloro-2-methoxy-phenyl)-3-(5-cyano-pyrazin-2-yl)-urea hydrochloride]: the IC50 in the data set with MV4-11 cells is 52 nM; with MOLM-13 cells, 14 nM; at Chk-1 kinase (setting [2]), under 10 nM.

Consider `COc1ccccc1CNCCc1cc(OC)c(NC(=O)Nc2cnc(C#N)cn2)cc1Cl` [Example 55, 1-{5-Chloro-2-methoxy-4-[2-(2-methoxy-benzylamino)-ethyl]-phenyl}-3-(5-cyano-pyrazin-2-yl)-urea hydrochloride], for which the IC50 with MV4-11 cells is 254 nM; with MOLM-13 cells, 34 nM; at Chk-1 kinase (setting [1]) it was 0.48 nM; at Chk-1 kinase (setting [2]) it was under 10 nM.

Take `COc1cc(CNCc2ccc(F)cc2)ccc1NC(=O)Nc1cnc(C#N)cn1` [Example 57, 1-(5-Cyano-pyrazin-2-yl)-3-{4-[(4-fluoro-benzylamino)-methyl]-2-methoxy-phenyl}-urea hydrochloride]: the “fold shift in the IC50 value of SN38” value in the data set with HT29 cells (test compound at 1 μM) is recorded as “two”; with HT29 cells (test compound at 3 μM), “greater than ten”. The values for the IC50 on Chk-1 kinase (setting [1]) and on Chk-1 kinase (setting [2]) were 8.9 nM and under 10 nM, respectively.

`COc1ccc(CNCc2ccc(NC(=O)Nc3cnc(C#N)cn3)c(OC)c2)cc1` [Example 60, 1-(5-Cyano-pyrazin-2-yl)-3-{2-methoxy-4-[(4-methoxy-benzylamino)-methyl]-phenyl}-urea]: in the data set with HT29 cells (test compound at 3 μM), the “fold shift in the IC50 value of SN38” value is “three; also recorded: greater than ten”. Also, the half-inhibitory concentration (IC50) at Chk-1 kinase (setting [1]) was 1.6 nM; on Chk-1 kinase (setting [2]), under 10 nM.
